Like-named read-outs stand apart in the source and are kept apart here.

The target in assay [1] is T1, kappa opioid receptor (Rattus norvegicus, UniProt P34975).
T1 construct: expressed in transfected cells; host or cells: HEK293
The assay is described as follows: biochemical. The assay is classed as binding.

The target in assay [2] is T2, kappa-delta heterodimer (UniProt P32300+P34975).
T2 construct: myc; FLAG; expressed in transfected cells; host or cells: HEK293
Briefly: biochemical. The assay is classed as binding, rat kappa, mouse delta.

T1 sequence (P34975 whole entry): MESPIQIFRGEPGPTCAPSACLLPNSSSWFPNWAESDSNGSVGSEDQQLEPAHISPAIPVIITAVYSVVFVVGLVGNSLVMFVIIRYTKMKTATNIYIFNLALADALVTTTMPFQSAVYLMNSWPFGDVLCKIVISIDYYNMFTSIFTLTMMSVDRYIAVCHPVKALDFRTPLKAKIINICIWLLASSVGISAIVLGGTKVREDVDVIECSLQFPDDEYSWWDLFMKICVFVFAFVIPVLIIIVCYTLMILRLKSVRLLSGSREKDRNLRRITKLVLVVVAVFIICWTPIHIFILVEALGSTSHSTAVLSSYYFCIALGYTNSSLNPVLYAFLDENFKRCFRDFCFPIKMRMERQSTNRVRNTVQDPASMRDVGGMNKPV
T2 sequence (P34975 whole entry): as above
T2 sequence (P32300 whole entry): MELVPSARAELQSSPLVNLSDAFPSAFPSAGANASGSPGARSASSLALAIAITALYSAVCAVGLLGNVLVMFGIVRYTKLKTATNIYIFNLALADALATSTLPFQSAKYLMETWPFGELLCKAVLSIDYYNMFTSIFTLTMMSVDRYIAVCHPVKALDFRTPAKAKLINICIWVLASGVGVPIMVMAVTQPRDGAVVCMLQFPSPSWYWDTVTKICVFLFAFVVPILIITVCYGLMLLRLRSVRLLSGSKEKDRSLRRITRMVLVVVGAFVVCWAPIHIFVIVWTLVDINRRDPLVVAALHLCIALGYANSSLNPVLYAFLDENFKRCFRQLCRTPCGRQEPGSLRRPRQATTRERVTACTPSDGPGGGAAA

On to `O=C1C(=Cc2ccccc2)C[C@@]2(O)[C@H]3Cc4ccc(O)c5c4[C@@]2(CCN3CC2CC2)[C@H]1O5` [BNTX, 7-Benzylidenenaltrexone], for which the values for the Ki in assay [1] (read-out: Kappa (Ki)) and in assay [2] (read-out: Kappa-Delta (Ki)) were 172 ± 19 nM and 98 ± 19 nM, respectively.
In the case of `CCC12CCN(CC3(O)CC3)C(Cc3ccc(O)cc31)C2(C)C` (stereo not shown) [Bremazocine], the Ki in assay [1] came out at 0.4 ± 0.11 nM; in assay [2] (Kappa-Delta (Ki)), 1.2 ± 0.1 nM.
`CC[C@]12CCN(CC3CC3)[C@H](C(=O)c3ccc(O)cc31)[C@@H]2C` [EKC, ethylketocyclazocine]: the Ki in assay [1] was found to be 5.7 ± 0.79 nM; in assay [2] (Kappa-Delta (Ki)) it was 2.6 ± 0.2 nM.
For `Oc1ccc2c3c1O[C@H]1c4[nH]c5ccccc5c4C[C@@]4(O)[C@@H](C2)N(CC2CC2)CC[C@]314` [Naltrinole], the Ki was determined as 44.3 ± 1.1 nM in assay [1] and 44 ± 1.1 nM in assay [2] (Kappa-Delta (Ki)).
As to `Oc1ccc2c3c1O[C@H]1c4[nH]c5c(c4C[C@@]4(O)[C@@H](C2)N(CC2CC2)CC[C@]314)C[C@@]1(O)[C@H]2Cc3ccc(O)c4c3[C@@]1(CCN2CC1CC1)[C@H]5O4` [nor-BNI, nor-binaltorphimine], in assay [1], the Ki is 4.9 ± 0.3 nM and the “affinity of kappa receptors (in words)” value is recorded as “high affinities”.

Values taken from patent publication US6855807B1 (priority 1999, dated 2005).
